# Measured values from publication PMC12657942, “Measurement and modeling of rizatriptan in supercritical CO2 for pharmaceutical processing” (Scientific Reports, 2025).
# Legend:
# [1] = design: method as in PMID 36559181, doi:10.1007/s40005-015-0206-z, PMID 20582194, PMID 10551439; conditions: conventional oral tablets; cited from earlier work
# [2] = Solubility of rizatriptan in supercritical CO2, static gravimetric method; type: physicochemical
# Protocol: A specialized high-pressure system is employed to measure the solubility of rizatriptan using gravimetric techniques in a supercritical CO2[6]. A 200 mL vessel capable of withstanding pressures up to 35 MPa and temperatures up to 423 K is prepared with leak-free seals, valves, and fittings. All valves and connectors were 1/8 inch in size. The system’s pressure and temperature sensors are calibrated for accuracy. Next, 2000 mg of rizatriptan powder is weighed precisely using an analytical balance with 0.01 mg of sensitivity. The powder is then compacted into 5-mm diameter tablets to ensure uniformity and structural integrity. The tablets are placed in a basket inside the vessel to maximize their exposure to SC-CO2. CO2 is introduced gradually using a high-precision pump (SC-1000, SUPEREX), with the pressure increased in 0.05 MPa increments to maintain stability. The pressure is monitored and held within ± 0.01 MPa. Temperature is controlled within ± 0.1 K using a thermocouple, and the mixture is stirred at 250 rpm to ensure uniformity. […] The pressure and temperature indicators are checked to ensure stability. After equilibration, the vessel is carefully depressurized to ambient conditions to halt dissolution without losing the sample. The remaining tablets are then removed and cleaned of residual CO2. If needed, they are dried in a desiccator. The undissolved drug is weighed using a high-precision balance. The experiment is replicated at least three times to calculate the mean solubility and standard deviation. The following formula was used to calculate the mass of dissolved rizatriptan:1
# Include the molecular weights of rizatriptan ([…]) and CO2 (44.01 g/mol) in the mole fraction calculations.2 3 4 5
# The measurements were conducted at four isotherms (308.2 K, 318.2 K, 328.2 K, and 338.2 K) and […] pressure points (12, 15, 18, 21, 24, 27, 30 MPa). Table 3 documents the experimental conditions, including temperature, pressure, SC-CO2 density, mole fraction, standard deviation, and solubility in grams per liter.
structure (smiles),measurement,setting,value
"CN(C)CCc1c[nH]c2ccc(Cn3cncn3)cc12 [Rizatriptan, Rizatriptan benzoate]",bioavailability,[1],40–45%
same,mole fraction in SC-CO2,"[2]; 308.2 K, 12 MPa",0.09 × 10^−4
same,mole fraction in SC-CO2,"[2]; 308.2 K, 30 MPa",0.286 × 10^−4
same,mole fraction in SC-CO2,"[2]; 328.2 K, 12 MPa",0.45 × 10^−5
same,mole fraction in SC-CO2,"[2]; 328.2 K, 30 MPa",3.80 × 10^−5
same,mole fraction in SC-CO2,"[2]; 338.2 K, 12 MPa",0.024 × 10^−4
same,mole fraction in SC-CO2,"[2]; 338.2 K, 30 MPa",0.419 × 10^−4
same,mole fraction y in SC-CO2,"[2]; 338.2 K, 30 MPa",4.19 × 10^−5
same,"Experimental mole fraction (y) in supercritical carbon dioxide, y × 10^4","[2]; T 308.0 K (text 308.2 K), P 12 MPa, ρCO2 768.52 kg/m^3",0.090 × 10^4
same,"Experimental mole fraction (y) in supercritical carbon dioxide, y × 10^4","[2]; T 308.0 K (text 308.2 K), P 15 MPa, ρCO2 816.10 kg/m^3",0.121 × 10^4
same,"Experimental mole fraction (y) in supercritical carbon dioxide, y × 10^4","[2]; T 308.0 K (text 308.2 K), P 18 MPa, ρCO2 816.10 kg/m^3",0.141 × 10^4
same,"Experimental mole fraction (y) in supercritical carbon dioxide, y × 10^4","[2]; T 308.0 K (text 308.2 K), P 21 MPa, ρCO2 874.55 kg/m^3",0.177 × 10^4
same,"Experimental mole fraction (y) in supercritical carbon dioxide, y × 10^4","[2]; T 308.0 K (text 308.2 K), P 24 MPa, ρCO2 895.66 kg/m^3",0.227 × 10^4
same,"Experimental mole fraction (y) in supercritical carbon dioxide, y × 10^4","[2]; T 308.0 K (text 308.2 K), P 27 MPa, ρCO2 913.70 kg/m^3",0.258 × 10^4
same,"Experimental mole fraction (y) in supercritical carbon dioxide, y × 10^4","[2]; T 308.0 K (text 308.2 K), P 30 MPa, ρCO2 929.85 kg/m^3",0.286 × 10^4
same,"Experimental mole fraction (y) in supercritical carbon dioxide, y × 10^4","[2]; T 318.0 K (text 318.2 K), P 12 MPa, ρCO2 659.80 kg/m^3",0.069 × 10^4
same,"Experimental mole fraction (y) in supercritical carbon dioxide, y × 10^4","[2]; T 318.0 K (text 318.2 K), P 15 MPa, ρCO2 743.83 kg/m^3",0.126 × 10^4
same,"Experimental mole fraction (y) in supercritical carbon dioxide, y × 10^4","[2]; T 318.0 K (text 318.2 K), P 18 MPa, ρCO2 790.29 kg/m^3",0.162 × 10^4
same,"Experimental mole fraction (y) in supercritical carbon dioxide, y × 10^4","[2]; T 318.0 K (text 318.2 K), P 21 MPa, ρCO2 823.80 kg/m^3",0.215 × 10^4
same,"Experimental mole fraction (y) in supercritical carbon dioxide, y × 10^4","[2]; T 318.0 K (text 318.2 K), P 24 MPa, ρCO2 850.15 kg/m^3",0.281 × 10^4
same,"Experimental mole fraction (y) in supercritical carbon dioxide, y × 10^4","[2]; T 318.0 K (text 318.2 K), P 27 MPa, ρCO2 872.14 kg/m^3",0.322 × 10^4
same,"Experimental mole fraction (y) in supercritical carbon dioxide, y × 10^4","[2]; T 318.0 K (text 318.2 K), P 30 MPa, ρCO2 890.90 kg/m^3",0.339 × 10^4
same,"Experimental mole fraction (y) in supercritical carbon dioxide, y × 10^4","[2]; T 328.0 K (text 328.2 K), P 12 MPa, ρCO2 506.75 kg/m^3",0.045 × 10^4
same,"Experimental mole fraction (y) in supercritical carbon dioxide, y × 10^4","[2]; T 328.0 K (text 328.2 K), P 15 MPa, ρCO2 654.94 kg/m^3",0.099 × 10^4
same,"Experimental mole fraction (y) in supercritical carbon dioxide, y × 10^4","[2]; T 328.0 K (text 328.2 K), P 18 MPa, ρCO2 724.13 kg/m^3",0.176 × 10^4
same,"Experimental mole fraction (y) in supercritical carbon dioxide, y × 10^4","[2]; T 328.0 K (text 328.2 K), P 21 MPa, ρCO2 768.74 kg/m^3",0.241 × 10^4
same,"Experimental mole fraction (y) in supercritical carbon dioxide, y × 10^4","[2]; T 328.0 K (text 328.2 K), P 24 MPa, ρCO2 801.92 kg/m^3",0.302 × 10^4
same,"Experimental mole fraction (y) in supercritical carbon dioxide, y × 10^4","[2]; T 328.0 K (text 328.2 K), P 27 MPa, ρCO2 828.51 kg/m^3",0.353 × 10^4
same,"Experimental mole fraction (y) in supercritical carbon dioxide, y × 10^4","[2]; T 328.0 K (text 328.2 K), P 30 MPa, ρCO2 850.83 kg/m^3",0.380 × 10^4
same,"Experimental mole fraction (y) in supercritical carbon dioxide, y × 10^4","[2]; T 338.0 K (text 338.2 K), P 12 MPa, ρCO2 384.17 kg/m^3",0.024 × 10^4
same,"Experimental mole fraction (y) in supercritical carbon dioxide, y × 10^4","[2]; T 338.0 K (text 338.2 K), P 15 MPa, ρCO2 555.33 kg/m^3",0.136 × 10^4
same,"Experimental mole fraction (y) in supercritical carbon dioxide, y × 10^4","[2]; T 338.0 K (text 338.2 K), P 18 MPa, ρCO2 651.28 kg/m^3",0.213 × 10^4
same,"Experimental mole fraction (y) in supercritical carbon dioxide, y × 10^4","[2]; T 338.0 K (text 338.2 K), P 21 MPa, ρCO2 709.59 kg/m^3",0.279 × 10^4
same,"Experimental mole fraction (y) in supercritical carbon dioxide, y × 10^4","[2]; T 338.0 K (text 338.2 K), P 24 MPa, ρCO2 751.27 kg/m^3",0.334 × 10^4
same,"Experimental mole fraction (y) in supercritical carbon dioxide, y × 10^4","[2]; T 338.0 K (text 338.2 K), P 27 MPa, ρCO2 783.19 kg/m^3",0.388 × 10^4
same,"Experimental mole fraction (y) in supercritical carbon dioxide, y × 10^4","[2]; T 338.0 K (text 338.2 K), P 30 MPa, ρCO2 809.68 kg/m^3",0.419 × 10^4
same,crossover pressure,[2]; solubility isotherms 308.2–338.2 K in SC-CO2,approximately 15 MPa
